Non-standard residues stand in square brackets, D forms with d. Residues, ends and D or L forms follow the SMILES beside them. *: point of attachment. Hexenoyl(2E,4S-Me) = CC[C@H](C)/C=C/C(=O)*; Leu(3R-OH) = CC(C)[C@@H](O)[C@H](N)C(=O)O; NH((S)CH(Me)CH2NMe2) = C[C@@H](CN(C)C)N*; Gly(octyl) = CCCCCCCC[C@H](N)C(=O)O; Piperazinyl(4-Me) = CN1CCN(*)CC1; Nle = CCCC[C@H](N)C(=O)O; Hexanoyl = CCCCCC(=O)*; Aib = CC(C)(N)C(=O)O; βAla = NCCC(=O)O
Experiments:
[1] = tested on: Trypanosoma brucei rhodesiense (STIB 900 strain); test: Alamar Blue assay against Trypanosoma brucei rhodesiense grown in axenic medium; assay type: cell-based; conditions: In vitro inhibition, read-out: T.b.rhod.
Procedure: (§1) Tests were done in triplicate.
Trypanosoma brucei rhodesiense (STIB 900) were grown in axenic medium as described by Baltz et al. (1985) The samples were tested using the Alamar Blue assay protocol (Baltz T et al. EMBO J 1985; 4:1273-1277) to determine the 50% inhibitory concentration (IC50). […] Melarsoprol (Arsobal®, Sanofi-Aventis, Switzerland) was used as a reference drug (IC50= 0.03 ± 0.01 µM). Its purity was over 95 %, as was certified by the supplier. The IC50 values were calculated by using Softmax Pro software (Molecular Devices Cooperation, Sunnyvale, CA).

[2] = tested on: Trypanosoma cruzi trypomastigote forms (Tulahuen strain); test: Intracellular Trypanosoma cruzi assay in L6-cells, beta-galactosidase/CPRG readout; assay type: cell-based; conditions: In vitro inhibition, read-out: T.cruzi.
Procedure: as §1
Trypanosoma cruzi trypomastigote forms (Tulahuen strain C2C4 containing β-galactosidase (Lac Z) gene) were cultured as described by Buckner et al. (Buckner FS et al. Antimicrob Agents Ch1996; 40: 2592-2597) in rat myoblast cells (L6-cells). […] After incubation, the substrate chlorophenyl red β-D-galactopyranoside agent CPRG/Nonident was added to all wells and a color change was developed within 2 to 6 h. The plates were read photometrically at 540 nm (Molecular Devices). Data were evaluated and IC50 values calculated using Softmax Pro software (Molecular Devices).

[3] = tested on: Axenically grown Leishmania donovani amastigotes (strain MHOM/ET/67/L82); test: Axenic Leishmania donovani amastigote resazurin assay; assay type: cell-based; conditions: In vitro inhibition, read-out: L.don. ax
Procedure: as §1
Axenically grown Leishmania donovani amastigotes (strain MHOM/ET/67/L82) were grown and tests were done as previously described using the resazurin assay (Räz B et al. Acta Tropica 1997, 68:139-147). The plates were developed for 2-4 hours and read on a Spectramax Gemini XS micro plate fluorometer (Molecular Devices Cooperation) using an excitation wavelength of 536 nm and emission wavelength of 588 nm. Fluorescence development was measured and expressed as percentage of the negative control. […] Data were transferred to the graphic programme Softmax Pro (Molecular Devices), with which IC50 values were calculated.

[4] = tested on: Plasmodium falciparum; test: 3H-hypoxanthine incorporation assay against Plasmodium falciparum; assay type: cell-based; conditions: In vitro inhibition, read-out: P.falc NF5
Procedure: as §1
IC50 values were calculated by linear interpolation.

[5] = Cytotoxicity assay on L6-cells (Alamar Blue); conditions: rat, Cytotox L6, Cytotoxicity against rat myoblast cells (L6)

Compound | IC50 [1] [nM] | IC50 [2] [nM] | IC50 [3] [nM] | IC50 [4] [nM] | IC50 at 70 h [5] [nM]
CCCCCCCC[C@H](NC(=O)[C@@H]1CCCN1C(=O)/C=C/[C@@H](C)CC)C(=O)N[C@H](C(=O)NCCC(=O)N[C@@H](C)CN(C)C)[C@H](O)C(C)C [Compound 5523, (2S)-N-[(1S,2R)-1-[(2-{[(2S)-1-(dimethylamino)propan-2-yl]carbamoyl}ethyl)carbamoyl]-2-hydroxy-3-methylbutyl]-2-{[(2S)-1-[(2E,4S)-4-methylhex-2-enoyl]pyrrolidin-2-yl]formamido}decanamide] | 2440 | 5730 | 482 | 4750 | 8610
CC[C@H](C)/C=C/C(=O)N1CCC[C@H]1C(=O)N[C@@H](C)C(=O)N[C@H](C(=O)NC(C)(C)C(=O)N[C@@H](CC(C)C)C(=O)N[C@@H](CC(C)C)C(=O)NC(C)(C)C(=O)NC(C)(C)C(=O)NCCC(=O)N[C@@H](C)CN(C)C)[C@H](O)C(C)C [Compound 5526, (2S,3R)-N-(1-{[(1S)-1-{[(1S)-1-{[1-({1-[(2-{[(2S)-1-(dimethylamino)propan-2-yl]carbamoyl}ethyl)carbamoyl]-1-methylethyl}carbamoyl)-1-methylethyl]carbamoyl}-3-methylbutyl]carbamoyl}-3-methylbutyl]carbamoyl}-1-methylethyl)-3-hydroxy-4-methyl-2-[(2S)-2-{[(2S)-1-[(2E,4S)-4-methylhex-2-enoyl]pyrrolidin-2-yl]formamido}propanamido]pentanamide] ({Hexenoyl(2E,4S-Me)}-PA[Leu(3R-OH)][Aib]LL[Aib][Aib][βAla]-{NH((S)CH(Me)CH2NMe2)}) | 2.35 | 4500 | 286 | 83.8 | 3640
CCCCCCCC[C@H](NC(=O)[C@H](C)NC(=O)/C=C/[C@@H](C)CC)C(=O)N[C@H](C(=O)NC(C)(C)C(=O)N[C@@H](CC(C)C)C(=O)N[C@@H](CC(C)C)C(=O)NC(C)(C)C(=O)NC(C)(C)C(=O)NCCC(=O)N[C@@H](C)CN(C)C)[C@H](O)C(C)C [Compound 5527, (2S)-N-[(1S,2R)-1-[(1-{[(1S)-1-{[(1S)-1-{[1-({1-[(2-{[(2S)-1-(dimethylamino)propan-2-yl]carbamoyl}ethyl)carbamoyl]-1-methylethyl}carbamoyl)-1-methylethyl]carbamoyl}-3-methylbutyl]carbamoyl}-3-methylbutyl]carbamoyl}-1-methylethyl)carbamoyl]-2-hydroxy-3-methylbutyl]-2-[(2S)-2-[(2E,4S)-4-methylhex-2-enamido]propanamido]decanamide] ({Hexenoyl(2E,4S-Me)}-A[Gly(octyl)][Leu(3R-OH)][Aib]LL[Aib][Aib][βAla]-{NH((S)CH(Me)CH2NMe2)}) | 1.8 | 67.9 | 1.1 | 8.4 | 274
CCCC[C@H](NC(=O)[C@@H]1CCCN1C(=O)/C=C/[C@@H](C)CC)C(=O)N[C@H](C(=O)NC(C)(C)C(=O)N[C@@H](CC(C)C)C(=O)N[C@@H](CC(C)C)C(=O)NC(C)(C)C(=O)NC(C)(C)C(=O)NCCC(=O)N[C@@H](C)CN(C)C)[C@H](O)C(C)C [Compound 5561, (2S)-N-[(1S,2R)-1-[(1-{[(1S)-1-{[(1S)-1-{[1-({1-[(2-{[(2S)-1-(dimethylamino)propan-2-yl]carbamoyl}ethyl)carbamoyl]-1-methylethyl}carbamoyl)-1-methylethyl]carbamoyl}-3-methylbutyl]carbamoyl}-3-methylbutyl]carbamoyl}-1-methylethyl)carbamoyl]-2-hydroxy-3-methylbutyl]-2-{[(2S)-1-[(2E,4S)-4-methylhex-2-enoyl]pyrrolidin-2-yl]formamido}hexanamide] ({Hexenoyl(2E,4S-Me)}-P[Nle][Leu(3R-OH)][Aib]LL[Aib][Aib][βAla]-{NH((S)CH(Me)CH2NMe2)}) | 0.7 | 162 | 4.1 | 4.5 | 356
CCCCCCCC[C@H](NC(=O)[C@@H]1CCCN1C(=O)/C=C/[C@@H](C)CC)C(=O)N[C@H](C(=O)NC(C)(C)C(=O)N[C@@H](CC(C)C)C(=O)N[C@@H](CC(C)C)C(=O)NC(C)(C)C(=O)NC(C)(C)C(=O)NCCC(=O)N1CCN(C)CC1)[C@H](O)C(C)C [Compound 5571, (2S)-N-[(1S,2R)-2-hydroxy-3-methyl-1-[(1-methyl-1-{[(1S)-3-methyl-1-{[(1S)-3-methyl-1-({1-methyl-1-[(1-methyl-1-{[3-(4-methylpiperazin-1-yl)-3-oxopropyl]carbamoyl}ethyl)carbamoyl]ethyl}carbamoyl)butyl]carbamoyl}butyl]carbamoyl}ethyl)carbamoyl]butyl]-2-{[(2S)-1-[(2E,4S)-4-methylhex-2-enoyl]pyrrolidin-2-yl]formamido}decanamide] ({Hexenoyl(2E,4S-Me)}-P[Gly(octyl)][Leu(3R-OH)][Aib]LL[Aib][Aib][βAla]-{Piperazinyl(4-Me)}) | 214 | 2930 | 398 | 125 | 2630
CCCCCCCC[C@H](NC(=O)[C@@H]1CCCN1C(=O)CCCCC)C(=O)N[C@H](C(=O)NC(C)(C)C(=O)NC(C)(C)C(=O)NCCC(=O)N[C@@H](C)CN(C)C)[C@@H](C)O [Compound 5594, (2S)-N-[(1S)-1-[[(1S,2R)-1-[[2-[[2-[[3-[[(1S)-2-(dimethylamino)-1-methyl-ethyl]amino]-3-oxo-propyl]amino]-1,1-dimethyl-2-oxo-ethyl]amino]-1,1-dimethyl-2-oxo-ethyl]carbamoyl]-2-hydroxy-propyl]carbamoyl]nonyl]-1-hexanoyl-pyrrolidine-2-carboxamide] (Hexanoyl-P[Gly(octyl)]T[Aib][Aib][βAla]-{NH((S)CH(Me)CH2NMe2)}) | 2240 | 8610 | 571 | 2320 | 6020
CCCCCCCC[C@H](NC(=O)[C@@H]1CCCN1C(=O)CCCCC)C(=O)N[C@H](C(=O)N[C@@H](CC(C)C)C(=O)NC(C)(C)C(=O)NC(C)(C)C(=O)NCCC(=O)N[C@@H](C)CN(C)C)[C@@H](C)O [Compound 5596, (2S)-N-[(1S,2R)-1-{[(1S)-1-{[1-({1-[(2-{[(2S)-1-(dimethylamino)propan-2-yl]carbamoyl}ethyl)carbamoyl]-1-methylethyl}carbamoyl)-1-methylethyl]carbamoyl}-3-methylbutyl]carbamoyl}-2-hydroxypropyl]-2-{[(2S)-1-hexanoylpyrrolidin-2-yl]formamido}decanamide] (Hexanoyl-P[Gly(octyl)]TL[Aib][Aib][βAla]-{NH((S)CH(Me)CH2NMe2)}) | 667 | 7740 | 791 | 1240 | 5030
CCCCCCCC[C@H](NC(=O)[C@@H]1CCCN1C(=O)CCCCC)C(=O)N[C@H](C(=O)N[C@@H](CC(C)C)C(=O)N[C@@H](CC(C)C)C(=O)NC(C)(C)C(=O)NC(C)(C)C(=O)NCCC(=O)N[C@@H](C)CN(C)C)[C@@H](C)O [Compound 5598, (2S)-N-[(1S,2R)-1-{[(1S)-1-{[(1S)-1-{[1-({1-[(2-{[(2S)-1-(dimethylamino)propan-2-yl]carbamoyl}ethyl)carbamoyl]-1-methylethyl}carbamoyl)-1-methylethyl]carbamoyl}-3-methylbutyl]carbamoyl}-3-methylbutyl]carbamoyl}-2-hydroxypropyl]-2-{[(2S)-1-hexanoylpyrrolidin-2-yl]formamido}decanamide] (Hexanoyl-P[Gly(octyl)]TLL[Aib][Aib][βAla]-{NH((S)CH(Me)CH2NMe2)}) | 1240 | 6590 | 556 | 2130 | 3780
CCCCCCCC[C@H](NC(=O)[C@@H]1CCCN1C(=O)CCCCC)C(=O)N[C@H](C(=O)N[C@@H](CC(C)C)C(=O)N[C@@H](CC(C)C)C(=O)NC(C)(C)C(=O)NCCC(=O)N[C@@H](C)CN(C)C)[C@@H](C)O [Compound 5599, (2S)-N-[(1S,2R)-1-{[(1S)-1-{[(1S)-1-({1-[(2-{[(2S)-1-(dimethylamino)propan-2-yl]carbamoyl}ethyl)carbamoyl]-1-methylethyl}carbamoyl)-3-methylbutyl]carbamoyl}-3-methylbutyl]carbamoyl}-2-hydroxypropyl]-2-{[(2S)-1-hexanoylpyrrolidin-2-yl]formamido}decanamide] (Hexanoyl-P[Gly(octyl)]TLL[Aib][βAla]-{NH((S)CH(Me)CH2NMe2)}) | 1940 | 8360 | 4810 | 3500 | 6950
